In brackets after ≈: the same amount, converted by molar mass.
Columns and labels:
[1] = Source text: Moreover, for removing tetrahydrofuran in this Type-1 crystals and obtaining Type-1 crystals, it is necessary to reflux them in ethanol.
[2] = Stability test (storage of solid, residual ratio by HPLC); type: physicochemical; conditions: all storage conditions of Table 6
Procedure: The compound of the present invention (about 50 mg) was weighed in a test tube and stored under the following conditions. The stored sample was analyzed using high performance liquid chromatography (HPLC) to calculate its residual ratio by the internal standard method.
Condition 1: 60° C., sealed, 1 month;
Condition 2: 40° C., open, 75%RH (relative humidity), 3 months;
Condition 3: 40° C., sealed, 6 months;
Condition 4: 25° C., open, 60%RH (relative humidity), 12 months;
Condition 5: 5° C., sealed, 12 months;
The HPLC measurement was carried out under the same conditions as in Example 2 described above.

[3] = Solubility of compound of the present invention in various solvents (saturated solution, HPLC); type: physicochemical
Procedure: The compound of the present invention was added to various solvents so that a saturated state was achieved. Each mixture was stirred for 30 seconds by means of a laboratory mixer and then allowed to stand for 4 minutes and 30 seconds. The stirring and standing operations were repeated seven times. The mixture was centrifuged at 3000 rpm for 15 minutes and isoamyl 4-hydroxybenzoate was added as an internal standard to the resulting supernatant. Furthermore, acetonitrile was added to the supernatant to form a sample solution. A portion (8 μL) of each solution was analyzed using high performance liquid chromatography (HPLC) under the following conditions to determine its concentration by the internal standard method, and thereby solubility was calculated. Additionally, pH at the dissolution was measured.
HPLC measuring conditions
Eluent: 20 mmol/L aqueous potassium dihydrogen phosphate solution (pH 8.0, sodium hydroxide)/acetonitrile=65/35
As the buffer (buffer solution) in Table 5, Briton-Robinson Buffer having an ionic strength of 0.2 was used.

Row | SMILES | Stability of the form in water [1] | Toxicity (Toxicity) | Stability (conclusion from Table 6) [2] | solubility at 35 min ([3]; aqueous buffer, thermodynamic from solid, Buffer pH 3.0 (Briton-Robinson, ionic strength 0.2), pH at dissolution 3.0) | solubility at 35 min ([3]; aqueous buffer, thermodynamic from solid, Buffer pH 5.0 (Briton-Robinson, ionic strength 0.2), pH at dissolution 5.0) | solubility at 35 min ([3]; aqueous buffer, thermodynamic from solid, Buffer pH 7.0 (Briton-Robinson, ionic strength 0.2), pH at dissolution 7.0) | solubility at 35 min ([3]; aqueous buffer, thermodynamic from solid, Buffer pH 9.0 (Briton-Robinson, ionic strength 0.2), pH at dissolution 8.6) | solubility at 35 min ([3]; organic solvent or mixture, thermodynamic from solid, solvent: Acetonitrile) | solubility at 35 min ([3]; organic solvent or mixture, thermodynamic from solid, solvent: Ethanol) | solubility at 35 min ([3]; organic solvent or mixture, thermodynamic from solid, solvent: Methanol) | solubility at 35 min ([3]; organic solvent or mixture, thermodynamic from solid, solvent: Octanol) | solubility at 35 min ([3]; pH 7.3, thermodynamic from solid, solvent: Purified water, pH at dissolution 7.3)
1 | CC(C)C(NC(=O)Cn1c(-c2ccccc2)ncc(N)c1=O)C(=O)c1nnc(C(C)(C)C)o1 (racemic) [Type-1 crystals, 2-[5-Amino-6-oxo-2-phenyl-1,6-dihydro-1-pyrimidyl]-N-[1-(2-[5-t-butyl-1,3,4-oxadiazolyl]carbonyl)-2-(R,S)-methylpropyl]acetamide, reference compound] | promptly results in precipitation of Type-2 crystals | – | – | – | – | – | – | – | – | – | – | –
2 | CC(C)C(NC(=O)Cn1c(-c2ccccc2)ncc(N)c1=O)C(=O)c1nnc(C(C)(C)C)o1 (racemic) [compound of the present invention, 2-[5-amino-6-oxo-2-phenyl-1,6-dihydro-1-pyrimidyl]-N-[1-(2-[5-t-butyl-1,3,4-oxadiazolyl]carbonyl)-2-(R,S)-methylpropyl]acetamide] | – | sufficiently low toxicity | sufficiently stable | 122 µg/mL (≈ 270 µM) | 104 µg/mL (≈ 230 µM) | 94 µg/mL (≈ 208 µM) | 45 µg/mL (≈ 99.4 µM) | 19100 µg/mL (≈ 42200 µM) | 7290 µg/mL (≈ 16100 µM) | 33600 µg/mL (≈ 74300 µM) | 710 µg/mL (≈ 1570 µM) | 73 µg/mL (≈ 161 µM)

— patent US20040023998A1, “Novel crystals of 1,3,4-oxadiazole derivatives, process for producing the crystals and medicines containing the same as the active ingredient” (priority 2000, published 2004)
